Measured values: ChEMBL document CHEMBL5620389, “Development of diphenylmethylpiperazine hybrids of chloroquinoline and triazolopyrimidine using Petasis reaction as new cysteine proteases inhibitors for malaria therapeutics” (Eur J Med Chem, 2023)
Each block holds one compound with its values, some of them ahead of it. Activity calls are given as the source filed them.

Experiments:
Plasmodium falciparum [1] = assay: Antimalarial activity against chloroquine-sensitive Plasmodium falciparum 3D7 infected in RBC incubated for 50 hrs by SYBR green I staining based microplate reader assay; assay type: functional, organism-based; conditions: 3D7, Erythrocyte
Plasmodium falciparum [2] = assay: Antiplasmodial activity against synchronized Plasmodium falciparum 3D7 assessed as arrest in parasite development at trophozoite stage at 3 times IC50 after 24 to 48 hrs by Giesma-staining based light microscopic analysis; assay type: functional, organism-based; conditions: time 24-48 hrs
Erythrocyte = assay: Hemolytic activity in human RBC at 100 uM incubated for 2 hrs by microplate reader analysis; assay type: toxicity, cell-based
[3] = Cytotoxicity against African green monkey Vero cells at 1000 uM; assay type: toxicity, cell-based; conditions: chlorocebus sabaeus
[4] = Cytotoxicity against human […] cells incubated for 24 hrs by MTT assay; assay type: toxicity, cell-based
Falcipain-3 = target: T1, Falcipain-3 (Plasmodium falciparum 3D7, UniProt Q8IIL0); assay: Inhibition of Plasmodium falciparum FP3 using Z-Leu-Arg-AMC as substrate preincubated for 30 mins followed by substrate addition and measured for 30 mins by spectrofluorometer analysis
T1 sequence (Q8IIL0 whole entry): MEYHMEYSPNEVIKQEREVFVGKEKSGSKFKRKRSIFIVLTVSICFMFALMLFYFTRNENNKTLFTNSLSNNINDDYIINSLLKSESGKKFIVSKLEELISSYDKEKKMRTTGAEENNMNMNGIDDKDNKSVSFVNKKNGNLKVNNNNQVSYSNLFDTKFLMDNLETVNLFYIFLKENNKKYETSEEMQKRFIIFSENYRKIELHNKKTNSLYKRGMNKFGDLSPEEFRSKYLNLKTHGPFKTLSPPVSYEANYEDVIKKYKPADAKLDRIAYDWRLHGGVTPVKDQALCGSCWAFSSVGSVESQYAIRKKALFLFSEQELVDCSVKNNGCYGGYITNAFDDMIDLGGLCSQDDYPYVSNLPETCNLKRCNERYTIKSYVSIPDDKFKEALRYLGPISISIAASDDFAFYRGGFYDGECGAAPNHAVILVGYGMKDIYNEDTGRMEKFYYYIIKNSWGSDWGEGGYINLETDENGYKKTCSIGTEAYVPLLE

Falcipain 2 = target: T2, Falcipain 2 (Plasmodium falciparum, UniProt Q9N6S8); assay: Inhibition of Plasmodium falciparum FP2 using Z-Leu-Arg-AMC as substrate preincubated for 30 mins followed by substrate addition and measured for 30 mins by spectrofluorometer analysis
T2 sequence (Q9N6S8 whole entry): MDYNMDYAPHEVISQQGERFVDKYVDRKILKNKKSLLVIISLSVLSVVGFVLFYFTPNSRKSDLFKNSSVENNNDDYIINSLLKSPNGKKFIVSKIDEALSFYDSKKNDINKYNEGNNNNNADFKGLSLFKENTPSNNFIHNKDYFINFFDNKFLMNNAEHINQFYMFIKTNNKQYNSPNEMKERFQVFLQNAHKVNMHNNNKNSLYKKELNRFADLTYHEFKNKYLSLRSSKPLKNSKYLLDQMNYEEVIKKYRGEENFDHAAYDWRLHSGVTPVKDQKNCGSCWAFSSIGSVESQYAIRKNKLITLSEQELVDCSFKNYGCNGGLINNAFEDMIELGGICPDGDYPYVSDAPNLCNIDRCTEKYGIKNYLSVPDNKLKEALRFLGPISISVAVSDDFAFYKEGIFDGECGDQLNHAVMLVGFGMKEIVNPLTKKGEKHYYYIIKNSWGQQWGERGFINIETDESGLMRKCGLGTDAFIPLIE

Plasmodium falciparum [5] = assay: Antimalarial activity against chloroquine-resistant Plasmodium falciparum W2 infected in RBC incubated for 50 hrs by SYBR green I staining based microplate reader assay; assay type: functional, organism-based; conditions: W2, Erythrocyte
Plasmodium falciparum [6] = assay: Antimalarial activity against chloroquine-sensitive Plasmodium falciparum K1 incubated for 72 hrs by MSF assay; assay type: functional, organism-based; conditions: K1, 72 h
Plasmodium falciparum [7] = assay: Antimalarial activity against chloroquine-sensitive Plasmodium falciparum 3D7 incubated for 72 hrs by MSF assay; assay type: functional, organism-based; conditions: 3D7, 72 h
Plasmodium yoelii [8] = assay: Antimalarial activity against Plasmodium yoelii N67 infected in Swiss mouse assessed as curative rate at 12.5 mg/kg/day, po measured on day 28; assay type: functional; conditions: time 28 day
Plasmodium yoelii [9] = assay: Antimalarial activity against Plasmodium yoelii N67 infected in Swiss mouse assessed as parasitemia suppression at 12.5 mg/kg/day, po measured on day 4; assay type: functional; conditions: time 4 day
Plasmodium falciparum [10] = assay: Antimalarial activity against Plasmodium falciparum 3D7; assay type: functional, organism-based
Plasmodium falciparum [11] = assay: Antimalarial activity against Plasmodium falciparum K1; assay type: functional, organism-based

IC50 (Plasmodium falciparum [1]): 1.65 µM
SMILES: COc1cccc(C(c2ccc(C)cc2)N2CCN(c3ccnc4cc(Cl)ccc34)CC2)c1O (stereo not drawn)
Activity (Plasmodium falciparum [2]): Active | Activity (Erythrocyte): Toxic

IC50 (Plasmodium falciparum [1]): 3.33 µM
SMILES: Cc1cc(N2CCN(C(c3ccc(Cl)c(Cl)c3)c3ccccc3O)CC2)n2ncnc2n1 (stereo not drawn)
Activity (Erythrocyte): Toxic

SMILES: CCN(CC)CCCC(C)Nc1ccnc2cc(Cl)ccc12 (stereo not drawn) [CHLOROQUINE]
Activity (Erythrocyte): Toxic

IC50 (Plasmodium falciparum [1]): 1.46 µM
SMILES: COc1cccc(C(c2ccc(F)c(Cl)c2)N2CCN(c3ccnc4cc(Cl)ccc34)CC2)c1O (stereo not drawn)
Activity (Erythrocyte): Toxic

SMILES: COc1cccc(C(c2ccc(F)c(F)c2)N2CCN(c3ccnc4cc(Cl)ccc34)CC2)c1O (stereo not drawn)
Activity [3]: Non-Toxic | IC50 at 24 h [4]: 17.9 µM | IC50 (Plasmodium falciparum [1]): 1.31 µM | IC50 (Falcipain-3): 10.8 µM | IC50 (Falcipain 2): 10.4 µM | Activity (Plasmodium falciparum [2]): Active | IC50 (Plasmodium falciparum [5]): 1.4 µM | Activity (Erythrocyte): Toxic

IC50 (Plasmodium falciparum [1]): > 25 µM
SMILES: COc1ccc(C(c2ccccc2O)N2CCN(c3cc(C)nc4ncnn34)CC2)cc1 (stereo not drawn)
Activity (Erythrocyte): Toxic

IC50 (Plasmodium falciparum [1]): 1.41 µM
SMILES: Oc1ccccc1C(c1ccc(C(F)(F)F)cc1)N1CCN(c2ccnc3cc(Cl)ccc23)CC1 (stereo not drawn)
Activity (Erythrocyte): Toxic

IC50 (Plasmodium falciparum [1]): 6.87 µM
SMILES: Cc1cc(N2CCN(C(c3ccc(F)c(F)c3)c3ccccc3O)CC2)n2ncnc2n1 (stereo not drawn)
Activity (Erythrocyte): Toxic

SMILES: COc1cccc(C(c2ccc(C(F)(F)F)cc2)N2CCN(c3ccnc4cc(Cl)ccc34)CC2)c1O (stereo not drawn)
Activity [3]: Non-Toxic | IC50 at 24 h [4]: 32.9 µM | IC50 (Plasmodium falciparum [1]): 0.53 µM | IC50 (Falcipain-3): 6.2 µM | IC50 (Falcipain 2): 5.4 µM | Activity (Plasmodium falciparum [2]): Active | IC50 (Plasmodium falciparum [5]): 3.29 µM | Activity (Erythrocyte): Toxic

SMILES: COc1ccc(C(c2cccc(OC)c2O)N2CCN(c3ccnc4cc(Cl)ccc34)CC2)cc1 (stereo not drawn)
Activity [3]: Non-Toxic | IC50 at 24 h [4]: 214 µM | IC50 (Plasmodium falciparum [1]): 1.09 µM | IC50 (Falcipain-3): 7.8 µM | IC50 (Falcipain 2): 7.1 µM | IC50 (Plasmodium falciparum [5]): 2.6 µM | Activity (Erythrocyte): Toxic

SMILES: Oc1ccccc1C(c1ccc(F)c(Cl)c1)N1CCN(c2ccnc3cc(Cl)ccc23)CC1 (stereo not drawn)
Activity [3]: Non-Toxic | IC50 at 24 h [4]: 139 µM | IC50 (Plasmodium falciparum [1]): 1.2 µM | IC50 (Falcipain-3): 10.1 µM | IC50 (Falcipain 2): 8.7 µM | Activity (Plasmodium falciparum [2]): Active | IC50 (Plasmodium falciparum [5]): 0.46 µM | Activity (Erythrocyte): Toxic

IC50 (Plasmodium falciparum [6]): 0.0978 µM | IC50 (Plasmodium falciparum [7]): 0.057 µM
SMILES: CCN1CCN(CC(CC(C)C)Nc2ccnc3cc(Cl)ccc23)CC1 (stereo not drawn)
Activity (Plasmodium yoelii [8]): 100% | Activity (Plasmodium yoelii [9]): 100%

SMILES: Cc1ccc(C(c2ccccc2O)N2CCN(c3ccnc4cc(Cl)ccc34)CC2)cc1 (stereo not drawn)
Activity [3]: Non-Toxic | IC50 at 24 h [4]: 134 µM | IC50 (Plasmodium falciparum [1]): 1.06 µM | IC50 (Falcipain-3): 6.7 µM | IC50 (Falcipain 2): 6.1 µM | Activity (Plasmodium falciparum [2]): Active | IC50 (Plasmodium falciparum [5]): 1.28 µM | Activity (Erythrocyte): Toxic

IC50 (Plasmodium falciparum [1]): 1.54 µM
SMILES: COc1cccc(C(c2ccc(F)cc2)N2CCN(c3ccnc4cc(Cl)ccc34)CC2)c1O (stereo not drawn)
Activity (Erythrocyte): Toxic

IC50 (Plasmodium falciparum [1]): 1.47 µM
SMILES: COc1cccc(C(c2ccc(OC(F)(F)F)cc2)N2CCN(c3ccnc4cc(Cl)ccc34)CC2)c1O (stereo not drawn)
Activity (Erythrocyte): Toxic

IC50 (Plasmodium falciparum [1]): > 25 µM
SMILES: Cc1ccc(C(c2ccccc2O)N2CCN(c3cc(C)nc4ncnn34)CC2)cc1 (stereo not drawn)
Activity (Erythrocyte): Toxic

SMILES: Oc1ccccc1C(c1ccc(OC(F)(F)F)cc1)N1CCN(c2ccnc3cc(Cl)ccc23)CC1 (stereo not drawn)
Activity [3]: Non-Toxic | IC50 at 24 h [4]: 104 µM | IC50 (Plasmodium falciparum [1]): 0.74 µM | IC50 (Falcipain-3): 4.7 µM | IC50 (Falcipain 2): 4.8 µM | Activity (Plasmodium falciparum [2]): Active | IC50 (Plasmodium falciparum [5]): 1.24 µM | Activity (Erythrocyte): Toxic

IC50 (Plasmodium falciparum [10]): 0.011 µM | IC50 (Plasmodium falciparum [11]): 0.013 µM
SMILES: CC(C)(C)NCc1ccc(Nc2ccnc3cc(Cl)ccc23)cc1O [GSK-369796]

SMILES: Oc1ccccc1C(c1ccc(F)c(F)c1)N1CCN(c2ccnc3cc(Cl)ccc23)CC1 (stereo not drawn)
Activity [3]: Non-Toxic | IC50 at 24 h [4]: 188 µM | IC50 (Plasmodium falciparum [1]): 0.74 µM | IC50 (Falcipain-3): 4.9 µM | IC50 (Falcipain 2): 3.9 µM | Activity (Plasmodium falciparum [2]): Active | IC50 (Plasmodium falciparum [5]): 1.05 µM | Activity (Erythrocyte): Toxic

IC50 (Plasmodium falciparum [1]): 34.3 µM
SMILES: Cc1cc(N2CCN(C(c3ccc(F)cc3)c3ccccc3O)CC2)n2ncnc2n1 (stereo not drawn)
Activity (Erythrocyte): Toxic

IC50 (Plasmodium falciparum [1]): 1.62 µM
SMILES: COc1ccc(C(c2ccccc2O)N2CCN(c3ccnc4cc(Cl)ccc34)CC2)cc1 (stereo not drawn)
Activity (Erythrocyte): Toxic

SMILES: COc1cccc(C(c2ccc(Cl)c(Cl)c2)N2CCN(c3ccnc4cc(Cl)ccc34)CC2)c1O (stereo not drawn)
Activity [3]: Non-Toxic | IC50 at 24 h [4]: 172 µM | IC50 (Plasmodium falciparum [1]): 1.06 µM | IC50 (Falcipain-3): 5.9 µM | IC50 (Falcipain 2): 4.6 µM | Activity (Plasmodium falciparum [2]): Active | IC50 (Plasmodium falciparum [5]): 0.66 µM | Activity (Erythrocyte): Toxic
